Values of other authors as cited in patent US10053407B2, “Crystalline cannabidivarin” (S&B Pharma, Inc., priority 2016, dated 2018).

System: epilepsy
Conditions: animal studies; 50 and 100 mg/kg, delivered intra-peritoneally; cannabidivarin prepared by non-synthetic methods

C=C(C)[C@@H]1CCC(C)=C[C@H]1c1c(O)cc(CCC)cc1O [cannabidivarin]
mortality: effective in reducing mortality
